The values below come from patent publication US8791132B2, “Compounds and methods for treatment of hypertension” (Medivation Technologies, Inc., priority 2011, dated 2014).

For orientation: inhibition means the drop in the measured response relative to a control, in per cent. One may read the Ki as the dissociation constant of the complex between target and ligand, obtained from inhibition or displacement.

Where “and” joins values, the source holds several entries; their conditions need not be identical. Equal values may be shown once. Read-outs that look alike come from different tables or passages of the source.

Assay [1] deals with T1, human recombinant adrenergic α2B receptor (Homo sapiens, UniProt P18089).
T1 construct: expressed in transfected cells; host or cells: CHO-K1
T1 sequence (P18089 1-450): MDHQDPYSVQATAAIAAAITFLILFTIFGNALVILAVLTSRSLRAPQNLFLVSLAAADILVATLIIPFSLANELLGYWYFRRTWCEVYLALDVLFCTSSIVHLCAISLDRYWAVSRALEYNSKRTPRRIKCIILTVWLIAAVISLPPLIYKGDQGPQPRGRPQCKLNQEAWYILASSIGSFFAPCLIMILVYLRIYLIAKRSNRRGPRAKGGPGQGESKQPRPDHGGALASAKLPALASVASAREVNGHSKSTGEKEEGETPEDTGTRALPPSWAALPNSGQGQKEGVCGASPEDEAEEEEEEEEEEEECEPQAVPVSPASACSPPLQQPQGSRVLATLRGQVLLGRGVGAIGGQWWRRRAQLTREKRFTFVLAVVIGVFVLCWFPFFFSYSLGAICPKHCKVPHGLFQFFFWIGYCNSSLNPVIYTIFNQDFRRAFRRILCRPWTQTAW
The assay is described as follows: Radioligand binding, adrenergic α2B ([3H]Rauwolscine). The method in brief:
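Assay used CHO-K1-expressed human α2B receptor in Tris-HCl pH 7.4 buffer with MgCl2, EDTA and BSA; 60 min incubation at 25 °C.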

The target in assay [2] is T2, human recombinant adrenergic α2A receptor (Homo sapiens, UniProt P08913).
T2 construct: expressed in transfected cells; host or cells: insect Sf9 cells
T2 sequence (P08913 1-465): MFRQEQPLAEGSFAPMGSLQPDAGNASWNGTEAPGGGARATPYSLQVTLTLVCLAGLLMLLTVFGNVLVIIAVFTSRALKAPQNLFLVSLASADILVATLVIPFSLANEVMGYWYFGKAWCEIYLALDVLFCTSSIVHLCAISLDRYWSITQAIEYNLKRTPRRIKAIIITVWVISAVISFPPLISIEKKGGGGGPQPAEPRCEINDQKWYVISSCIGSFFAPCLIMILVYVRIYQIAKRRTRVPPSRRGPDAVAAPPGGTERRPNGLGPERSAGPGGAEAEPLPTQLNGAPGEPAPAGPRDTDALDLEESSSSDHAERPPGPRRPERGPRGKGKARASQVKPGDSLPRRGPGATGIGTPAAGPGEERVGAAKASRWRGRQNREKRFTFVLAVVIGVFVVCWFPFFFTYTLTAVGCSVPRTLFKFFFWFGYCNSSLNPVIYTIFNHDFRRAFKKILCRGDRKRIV
In words: Radioligand binding, adrenergic α2A ([3H]MK-912). The method in brief:
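Sf9 membranes, 1 nM [3H]MK-912, 60 min, 25 °C, Tris-HCl pH 7.4/MgCl2/EDTA buffer. NSB: 10 μM WB-4101. Filtration, counting; % inhibition of specific binding.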

In assay [3] the target is T3, rat adrenergic α1B receptor (Rattus norvegicus, UniProt P15823).
T3 construct: rat adrenergic α1B receptor obtained from Wistar Rat liver; from tissue; host or cells: Wistar rat liver
T3 sequence (P15823 1-515): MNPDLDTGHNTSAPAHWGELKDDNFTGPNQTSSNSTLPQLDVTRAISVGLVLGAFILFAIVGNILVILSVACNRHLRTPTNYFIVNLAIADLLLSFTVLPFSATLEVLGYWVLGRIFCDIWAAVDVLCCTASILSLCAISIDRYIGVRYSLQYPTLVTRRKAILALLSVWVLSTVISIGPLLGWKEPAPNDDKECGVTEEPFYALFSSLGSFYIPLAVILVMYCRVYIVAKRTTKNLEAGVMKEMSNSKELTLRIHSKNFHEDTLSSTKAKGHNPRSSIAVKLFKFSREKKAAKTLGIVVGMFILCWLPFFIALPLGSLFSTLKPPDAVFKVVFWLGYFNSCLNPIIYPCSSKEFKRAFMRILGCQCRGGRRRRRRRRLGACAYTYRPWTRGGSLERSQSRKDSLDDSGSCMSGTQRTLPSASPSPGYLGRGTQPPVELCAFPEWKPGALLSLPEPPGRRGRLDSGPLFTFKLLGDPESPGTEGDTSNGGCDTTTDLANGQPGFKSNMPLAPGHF
In words: Radioligand binding, adrenergic α1B ([3H]Prazosin). The method in brief:
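Rat α1B receptor from Wistar rat liver was incubated with 0.25 nM [3H]prazosin for 60 min at 25 °C in 50 mM Tris-HCl, pH 7.4, 0.5 mM EDTA. Non-specific binding was defined with 10 μM phentolamine. Bound radioligand was measured by filtration and counting, reported as percent inhibition of specific binding.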

Assay [4] has as its target T4, human recombinant adrenergic α1D receptor (Homo sapiens, UniProt P25100).
T4 construct: expressed in transfected cells; host or cells: HEK-293
T4 sequence (P25100 1-572): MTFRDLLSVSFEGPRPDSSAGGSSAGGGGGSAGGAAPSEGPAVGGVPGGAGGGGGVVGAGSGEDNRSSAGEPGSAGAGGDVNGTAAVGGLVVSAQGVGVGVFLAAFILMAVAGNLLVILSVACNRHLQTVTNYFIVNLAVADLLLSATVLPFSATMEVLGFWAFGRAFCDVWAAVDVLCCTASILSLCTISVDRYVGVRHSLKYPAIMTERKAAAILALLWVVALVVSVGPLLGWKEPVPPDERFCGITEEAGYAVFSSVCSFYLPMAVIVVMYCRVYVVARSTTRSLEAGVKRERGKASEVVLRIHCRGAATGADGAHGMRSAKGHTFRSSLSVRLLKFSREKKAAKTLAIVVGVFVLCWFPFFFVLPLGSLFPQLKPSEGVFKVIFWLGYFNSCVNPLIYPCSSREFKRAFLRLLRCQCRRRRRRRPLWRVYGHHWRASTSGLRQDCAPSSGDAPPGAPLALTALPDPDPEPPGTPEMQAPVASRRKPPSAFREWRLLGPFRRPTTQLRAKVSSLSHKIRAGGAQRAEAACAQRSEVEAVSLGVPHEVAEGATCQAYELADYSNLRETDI
The assay is described as follows: Radioligand binding, adrenergic α1D ([3H]Prazosin). As to the method:
Compounds were incubated with 0.6 nM [3H]Prazosin for 60 min at 25° C. Non-specific binding was estimated in the presence of 10 μM phentolamine. Receptor proteins were filtered and washed, the filters were then counted to determine [3H]Prazosin specifically bound. […] Biochemical assay results are presented as the percent inhibition of specific binding in Table B1.

Where [5] appears, read: read-out: Percentage inhibition of ligand binding, Adrenergic α2B (0.1 μM), compound at 0.1 μM, [3H]Rauwolscine, repeat datapoints each shown.
Where [6] appears, read: read-out: Percentage inhibition of ligand binding, Adrenergic α2A (0.1 μM), compound at 0.1 μM, [3H]MK-912, repeat datapoints each shown.
The mark [7] stands for this setting: read-out: Percentage inhibition of ligand binding, Adrenergic α1B (0.1 μM), compound at 0.1 μM, [3H]Prazosin, repeat datapoints each shown.
The mark [8] stands for this setting: read-out: Percentage inhibition of ligand binding, Adrenergic α1D (0.1 μM), compound at 0.1 μM, [3H]Prazosin, repeat datapoints each shown.
The mark [9] stands for this setting: 0.1 μM compound, read-out: Percentage inhibition of ligand binding, Adrenergic α2B.
[10] abbreviates: 0.1 μM compound, read-out: Percentage inhibition of ligand binding, Adrenergic α2A.
Where [11] appears, read: 0.1 μM compound, read-out: Percentage inhibition of ligand binding, Adrenergic α1B.
Where [12] appears, read: 0.1 μM compound, read-out: Percentage inhibition of ligand binding, Adrenergic α1D.
Where [13] appears, read: compound at 0.1 μM, [3H]Rauwolscine, repeat assays, each datapoint shown, read-out: Percentage inhibition of ligand binding, Adrenergic α2B.
[14] abbreviates: compound at 0.1 μM, [3H]MK-912, repeat assays, each datapoint shown, read-out: Percentage inhibition of ligand binding, Adrenergic α2A.
Setting [15] is: compound at 0.1 μM, [3H]Prazosin, repeat assays, each datapoint shown, read-out: Percentage inhibition of ligand binding, Adrenergic α1B.
The mark [16] stands for this setting: compound at 0.1 μM, [3H]Prazosin, repeat assays, each datapoint shown, read-out: Percentage inhibition of ligand binding, Adrenergic α1D.

On to `C/C(=C\n1c2c(c3cc(C)ccc31)C1CCC(C2)N1C)c1ccccc1F` (stereo not drawn) [compound 231], for which the inhibition at 0.1 µM in assay [1] (setting [5]) worked out at 87%; in assay [2] (setting [6]), 65%; in assay [3] (setting [7]), 48%; in assay [4] (setting [8]) it was 26%.
Take `Cc1ccc2c(c1)c1c(n2C#Cc2ccc(S(N)(=O)=O)s2)CCN(C)C1` [compound 334, 5-(2,8-dimethyl-1,2,3,4-tetrahydro-pyrido[4,3-b]indol-5-ylethynyl)-thiophene-2-sulfonic acid amide]: the inhibition at 0.1 µM in assay [1] (setting [9]) stood at 82%; in assay [2] (setting [10]), 55%; in assay [3] (setting [11]) it was 91%; in assay [4] (setting [12]) it was 72%.
Turning to `Cc1ccc2c(c1)c1c(n2CCc2ccccn2)CCN(C)C1` [compound 84], the inhibition at 0.1 µM in assay [1] (setting [13]) turned out to be 84%; in assay [2] (setting [14]), 27%; in assay [3] (setting [15]), 69%; in assay [4] (setting [16]), 36%.
Take `C/C(=C\n1c2c(c3cc(Cl)ccc31)CCN(C)CC2)c1ccccc1Cl` [compound 235]: the inhibition at 0.1 µM in assay [1] (setting [5]) amounted to 96%; in assay [2] (setting [6]), 80%; in assay [3] (setting [7]), 48%; in assay [4] (setting [8]), 11%.
As for `Cc1ccc2c(c1)c1c(n2C2=C(c3cccnc3)CCC2)CCN(C)C1` [compound 300, 2,8-dimethyl-5-(2-(pyridin-3-yl)cyclopent-1-enyl)-2,3,4,5-tetrahydro-1H-pyrido[4,3-b]indole], the inhibition at 0.1 µM in assay [1] (setting [9]) was determined as 86%; in assay [2] (setting [10]), 67%; in assay [3] (setting [11]), 14%; in assay [4] (setting [12]) it was 29%.
The matching figures for `C/C(=C\n1c2c(c3cc(C)ccc31)CN(C)CC2)C1CCCCC1` [compound 261]: 84%, 84%, 50% and 30%.
Turning to `C=CCC1(C)CN(C)Cc2c1n(/C=C(\C)c1ccc(F)cc1)c1ccc(C)cc21` (stereo not drawn) [compound 274, 4-allyl-5-[2-(4-fluoro-phenyl)-propenyl]-2,4,8-trimethyl-2,3,4,5-tetrahydro-1H-pyrido[4,3-b]indole], the inhibition at 0.1 µM is 27% in assay [1] (setting [9]), 68% in assay [2] (setting [10]), 28% in assay [3] (setting [11]) and 25% in assay [4] (setting [12]).
On to `C/C(=C\n1c2c(c3cc(C)ccc31)C1CCCN1CC2)c1ccc(C)nc1` (stereo not drawn) [compound 193, 10-methyl-7-(2-(6-methylpyridin-3-yl)prop-1-enyl)-2,3,5,6,7,11c-hexahydro-1H-indolizino[7,8-b]indole], for which the inhibition at 0.1 µM worked out at 103% in assay [1] (setting [5]), 77% in assay [2] (setting [6]), 93% in assay [3] (setting [7]) and 88% in assay [4] (setting [8]).
Consider `C/C(=C\n1c2c(c3cc(C)cc(C)c31)CN(C)CC2)c1ccc(C)nc1` [compound 188], for which the inhibition at 0.1 µM in assay [1] (setting [5]) amounted to 105%; in assay [3] (setting [7]), 60%; in assay [4] (setting [8]) it was 48%. Further, the “Percentage inhibition of ligand binding, Adrenergic α2A (0.1 μM)” value in assay [2] (compound at 0.1 μM, [3H]MK-912, repeat datapoints each shown, 0.1 µM) was 66% and 90%. In addition, the inhibition at 0.03 µM in assay [2] (read-out: Percentage inhibition of ligand binding, Adrenergic α2A (0.03 μM), compound at 0.03 μM, [3H]MK-912, repeat datapoints each shown) was 35%.
Consider `Cc1ccc2c(c1)c1c(n2CC(C)(O)c2ccc(C)nc2)CCN(C)C1` (stereo not drawn) [compound 29], for which the inhibition at 0.1 µM in assay [1] (setting [13]) was 100%; in assay [2] (setting [14]), 10%; in assay [3] (setting [15]), 24%; in assay [4] (setting [16]), 1%.
`CN1CCc2c(c3cc(Cl)ccc3n2CCC(=O)OC2CCCC2)C1` [compound 88]: the inhibition at 0.1 µM was 90% in assay [1] (setting [13]), 2% in assay [2] (setting [14]), 10% in assay [3] (setting [15]) and 36% in assay [4] (setting [16]).
Consider `C/C(=C\n1c2c(c3cc(C)ccc31)CN(C)CC2)c1ccc(Cl)c(Cl)c1` [compound 243], for which the inhibition at 0.1 µM in assay [1] (setting [9]) was 105%; in assay [2] (setting [10]) it was 90%; in assay [3] (setting [11]), 58%; in assay [4] (setting [12]), 45%. In assay [2], the Ki was found to be 3.86 nM. In addition, the inhibition at 0.03 µM in assay [2] (0.03 μM compound, read-out: Percentage inhibition of ligand binding, Adrenergic α2A) stood at 73%. Besides, the “Percentage inhibition of ligand binding, Adrenergic α2A” value in assay [2] (0.1 μM compound, 0.1 µM) worked out at 98%.
With `C/C(=C\n1c2c(c3cc(C)cnc31)CN(C)CC2)c1ccc(F)cc1` [compound 335, 9-[2-(4-fluoro-phenyl)-propenyl]-3,6-dimethyl-6,7,8,9-tetrahydro-5H-1,6,9-triaza-fluorene], the inhibition at 0.1 µM in assay [1] (setting [9]) came out at 99%; in assay [2] (setting [10]), 60%; in assay [3] (setting [11]), 82%; in assay [4] (setting [12]), 73%.
For `C/C(=C\n1c2c(c3cc(C)ccc31)CN(C)CC2)c1cccnc1` [compound 250], the inhibition at 0.1 µM in assay [1] (setting [9]) was determined as 105%; in assay [2] (setting [10]), 62%; in assay [3] (setting [11]), 37%; in assay [4] (setting [12]), 22%.
